Series [1] concerns Plasmodium. In words: Antimalarial activity against Plasmodium infected in mouse. Format: functional.
Series [2] can be described thus: Toxicity in po dosed Sprague-Dawley rat. Conditions: in vivo. Format: organism-based.
Series [3] relates to Plasmodium falciparum. In words: Antiplasmodial activity against Plasmodium falciparum. The class given is functional, organism-based.
For series [4], the system named is Plasmodium falciparum. The series can be described thus: Antiplasmodial activity against drug-sensitive Plasmodium falciparum 3D7. Format: functional, organism-based.
Series [5] can be described thus: Half life in human. The class given is ADME, organism-based. Conditions: in vivo.
Series [6] relates to Plasmodium falciparum. The series can be described thus: Antiplasmodial activity against NITD609-resistant Plasmodium falciparum Dd2 infected in human erythrocytes after 48 hrs by [3H]-hypoxanthine incorporation assay. The class given is functional, organism-based.
Series [7] relates to Plasmodium berghei. The series can be described thus: Antimalarial activity against Plasmodium berghei ANKA infected in mouse assessed as reduction in parasitemia at 40 mg/kg, ip relative to control. To be noted: route intraperitoneal. The class given is functional.
The test system of series [8] is Plasmodium falciparum. The series can be described thus: Antimalarial activity against Plasmodium falciparum infected in po dosed mouse assessed as decrease in parasitemia administered on day 1 postinfection measured on day 3 by FACS analysis. The class given is functional. In general terms: A flow cytometer gives signals particle by particle.
For series [9], the system named is Plasmodium falciparum. The series can be described thus: Antiplasmodial activity against chloroquine-resistant Plasmodium falciparum K1 infected in human erythrocytes after 48 hrs by [3H]-hypoxanthine incorporation assay. The class given is functional, organism-based.
The subject of series [10] is Plasmodium falciparum. The series can be described thus: Antiplasmodial activity against multidrug-resistant Plasmodium falciparum W2 infected in human erythrocytes after 24 hrs by [3H]-hypoxanthine incorporation assay.
Series [11] deals with Plasmodium falciparum. The series can be described thus: Antimalarial activity against Plasmodium falciparum infected in SCID mouse. Format: functional.
Series [12] relates to Plasmodium berghei. The series can be described thus: Antimalarial activity against Plasmodium berghei infected in po dosed mouse. Format: functional.
Series [13] deals with Plasmodium berghei. The series can be described thus: Antimalarial activity against erythrocytic stage of Plasmodium berghei infected in po dosed mouse administered for 3 days. The class given is functional. Conditions: 72 h.
Series [14] deals with Plasmodium falciparum. In words: Antiplasmodial activity against drug-sensitive Plasmodium falciparum NF54. Format: functional, organism-based.
Series [15] deals with Plasmodium vinckei. The series can be described thus: Antimalarial activity against Plasmodium vinckei infected in ip dosed Swiss mouse at 0.5 to 1% parasitemia. The class given is functional.
Series [16] deals with Plasmodium vinckei. In words: Antimalarial activity against Plasmodium vinckei infected in po dosed Swiss mouse. The class given is functional.
Series [17] relates to Plasmodium vinckei. In words: Antimalarial activity against Plasmodium vinckei infected in ip dosed Swiss mouse at 5 to 10% parasitemia. The class given is functional.
The test system of series [18] is Plasmodium. In words: Antimalarial activity against Plasmodium infected in ip dosed mouse. The class given is functional.
For series [19], the system named is Plasmodium. In words: Antiplasmodial activity against Plasmodium. Format: functional.
Series [20] can be described thus: Oral bioavailability in mouse. Format: ADME, organism-based. Conditions: in vivo.
For series [21], the system named is Plasmodium berghei. The series can be described thus: Antimalarial activity against Plasmodium berghei infected in Swiss albino mouse assessed as reduction in parasitemia after 4 days by microscopic analysis. The class given is functional. To be noted: 96 h.
In series [22] the test system is Plasmodium berghei. In words: Antimalarial activity against Plasmodium berghei infected in Swiss albino mouse assessed as reduction in parasitemia after 4 days by microscopic analysis relative to artesunate. The class given is functional.
The test system of series [23] is Plasmodium falciparum. In words: Antiplasmodial activity against Plasmodium falciparum relative to artesunate. The class given is functional.
The test system of series [24] is Plasmodium falciparum. In words: Antiplasmodial activity against drug-sensitive Plasmodium falciparum 3D7 after 24 hrs by [3H]-hypoxanthine incorporation assay. The class given is functional, organism-based.
The test system of series [25] is Plasmodium berghei. The series can be described thus: Antimalarial activity against Plasmodium berghei str. ANKA infected in po dosed mouse assessed as reduction in parasitemia. The class given is functional.
The subject of series [26] is Plasmodium falciparum. In words: Antiplasmodial activity against erythrocytic stage of multidrug-resistant Plasmodium falciparum W2. The class given is functional, organism-based.
Another series concerns Plasmodium yoelii yoelii. In words: Antimalarial activity against Plasmodium yoelii yoelii infected in mouse. The class given is functional.
For series [27], the system named is Plasmodium falciparum. The series can be described thus: Antiplasmodial activity against Plasmodium falciparum by SYBR Green staining-based fluorescence assay. Format: functional, organism-based.
Series [28] relates to Plasmodium falciparum. The series can be described thus: Antiplasmodial activity against erythrocytic stage of multidrug-resistant Plasmodium falciparum K1. Format: functional, organism-based.
Series [29] in a line: Half life in Sprague-Dawley rat at 3 mg/kg, iv. Format: ADME, organism-based. Further details: dose 3 mg/kg, route intravenous. To be noted: in vivo.
Series [30] deals with Plasmodium falciparum. The series can be described thus: Antiplasmodial activity against Plasmodium falciparum VS/1 expressing DHFR quadruple mutation by [3H]-hypoxanthine incorporation assay. The class given is functional, organism-based.
Series [31] has as its system Plasmodium falciparum. The series can be described thus: Antiplasmodial activity against wild type Plasmodium falciparum TM4 by [3H]-hypoxanthine incorporation assay. Conditions: TM4, 3 h.

One may read the ED50 as the midpoint of the dose-response relation. The term EC50 denotes the concentration at which the effect is half-maximal. A higher EC50 goes with a less potent agent. `c1cc([C@H]2CC[C@]3(CC2)OO[C@]2(O3)C3CC4CC(C3)CC2C4)ccc1OCCN1CCOCC1` [ARTEFENOMEL] gave an ED50 in the series on Plasmodium [1] of 20 mg/kg. The molecule also had an MTD in series [2] of 300 mg/kg. Further, the EC50 in the series on Plasmodium falciparum [3] was determined as 3.4 nM.
In turn, `CC(C)(C)c1cc(C(=O)N2CCN(c3ncccc3C(F)(F)F)CC2)n(Cc2ccccc2)n1` came in with an EC50 with Plasmodium falciparum [4] of 100 nM.
As a reminder, the half-life is how long it takes for the measured level to halve. The molecule `C[C@H]1[C@@H](O)O[C@@H]2O[C@@]3(C)CC[C@H]4[C@H](C)CC[C@@H]1[C@@]24OO3` [ARTENIMOL] gave a half-life in series [5] of 1 h.
In the series on Plasmodium falciparum [6], `C[C@@H]1CC[C@H]2[C@@H](C)C(=O)O[C@@H]3O[C@@]4(C)CC[C@@H]1[C@]32OO4` [ARTEMISININ] yielded an EC50 of 15 nM.
In the case of `COc1cc2nc(N3CCCN(C)CC3)nc(NC3CCN(Cc4ccccc4)CC3)c2cc1OC`, in the series with Plasmodium berghei [7], the “fold change (FC)” value was determined as 2. In the series on Plasmodium falciparum [4], this molecule displayed an EC50 of 75 nM.
With `C[C@H]1[C@H](OC(=O)CCC(=O)O)O[C@@H]2O[C@@]3(C)CC[C@H]4[C@H](C)CC[C@@H]1[C@@]24OO3` [ARTESUNATE], the median effective dose (ED50) in the series on Plasmodium falciparum [8] worked out at 6.2 mg/kg/day. Moreover, in the series with Plasmodium falciparum [9], the EC50 was found to be 3.1 nM. In series [5], the half-life was 1 h.
`CCN(CC)CCCC(C)Nc1ccnc2cc(Cl)ccc12` (stereo unspecified) [CHLOROQUINE] displayed an EC50 in the series with Plasmodium falciparum [10] of 49 nM. The ED90 in the series on Plasmodium falciparum [11] came to 6.4 mg/kg/day. In the series with Plasmodium berghei [12], this molecule returned a median effective dose (ED50) of 1.9 mg/kg.
As to `CC(=O)N1CCN(c2ccc(CN(C(=O)/C=C/c3ccc(C(F)(F)F)cc3)[C@@H](Cc3ccccc3)C(=O)N3CCN(Cc4ccc(N(C)CCO)cc4)CC3)cc2)CC1`, the results for the ED90 with Plasmodium berghei [13] and in the series on Plasmodium falciparum [11] were 54 mg/kg/day and 8.4 mg/kg/day, respectively. This molecule registered a 50% effective concentration (EC50) with Plasmodium falciparum [14] of 1 nM.
What is called bioavailability is the share of a dose that reaches the circulation, judged against a reference dose that is usually intravenous. Low readings indicate poor availability, high ones good availability. Consider `Cc1c(CCO)sc[n+]1CCCCCCCCCCCC[n+]1csc(CCO)c1C.[I-].[I-]`, for which the ED50 in the series on Plasmodium vinckei [15] is 1 mg/kg/day; with Plasmodium vinckei [16], 13 mg/kg/day; in the series on Plasmodium vinckei [17] it was not above 0.5 mg/kg/day; in the series on Plasmodium [18], 0.2 mg/kg/day. The molecule further had a half-maximal effective concentration (EC50) in the series with Plasmodium [19] of 2 nM. This molecule yielded a bioavailability in series [20] of 2%.
On to `C[C@H]1[C@H](N2CCS(=O)(=O)CC2)O[C@@H]2O[C@@]3(C)CC[C@H]4[C@H](C)CC[C@@H]1[C@@]24OO3` [ARTEMIFONE], for which, in the series on Plasmodium berghei [21], the 50% effective dose (ED50) worked out at 2 mg/kg/day. Besides, the “fold change (FC)” value is 4 in the series on Plasmodium berghei [22] and 10 with Plasmodium falciparum [23]. In the series on Plasmodium falciparum [24], this molecule registered an EC50 of 0.88 nM.
As for `O[C@@H](c1cc(C(F)(F)F)nc2c(C(F)(F)F)cccc12)[C@H]1CCCCN1` (relative stereo) [(S,R)-MEFLOQUINE], the half-life in [5] was 336 h. Besides, the 50% effective dose (ED50) in the series with Plasmodium berghei [25] is 3.3 mg/kg. Moreover, in the series on Plasmodium falciparum [26], a half-maximal effect (EC50) was put at 7 nM.
In the series with Plasmodium yoelii yoelii, `C[C@@]12OC(=O)[C@]1([C@@H](O)[C@@H]1C=CCCC1)NC(=O)[C@@H]2CCCl` [MARIZOMIB] yielded a 50% effective dose (ED50) of 0.25 mg/kg/day. The molecule also showed an EC50 with Plasmodium falciparum [27] of 11 nM.
`CSc1ccc2nc(N(Cc3cccnc3)C(=O)c3ccc(C(C)(C)C)cc3)sc2c1`: the half-maximal effective concentration (EC50) in the series on Plasmodium falciparum [28] is 326 nM. This lies in the sub-micromolar range.
In [29], `CC(C)(N)CNC(=O)C[C@H]1CC[C@]2(CC1)OO[C@]1(O2)C2CC3CC(C2)CC1C3` [OZ277] gave a half-life of 1 h.
For orientation: IC50 means the concentration at which inhibition is half-maximal. Low readings indicate higher potency, high ones lower potency. Regarding `CCc1nc(N)nc(N)c1-c1ccc(Cl)cc1` [PYRIMETHAMINE], the figures for the concentration for half-maximal inhibition (IC50) in the series with Plasmodium falciparum [30] and in the series on Plasmodium falciparum [31] were more than 100000 nM and 58 nM, respectively.
